In the NIST ThermoML archive (doi:10.1021/je060271a):

Settings: 323.14 K, Liquid, Vibrating tube method

CCCCCCC(=O)OCC(COC(=O)CCCCCC)(COC(=O)CCCCCC)COC(=O)CCCCCC [pentaerythritol tetraheptanoate]
Settings	mass density [kg/m3]
8083.9 kPa	961.1
8112.2 kPa	961
8146.4 kPa	961.1
8174.7 kPa	961.1
8204 kPa	961.1
8239.5 kPa	961.1
8270.3 kPa	961.2
8300.6 kPa	961.1
8335.1 kPa	961.2
8358.1 kPa	961.3
8377.9 kPa	961.3
8401.4 kPa	961.2
8421.2 kPa	961.3
8441.4 kPa	961.4
8465.3 kPa	961.4
8485.9 kPa	961.3
8506.7 kPa	961.3
8527.9 kPa	961.3
8548.6 kPa	961.4
8573.6 kPa	961.4
8594.5 kPa	961.5
8619.3 kPa	961.5
8640.2 kPa	961.3
8661.6 kPa	961.4
8682.6 kPa	961.4
9244.8 kPa	961.9
9604.8 kPa	962.1
9745.2 kPa	962.3
9761.3 kPa	962.2
9775 kPa	962.3
9934.6 kPa	962.3
9965.6 kPa	962.4
9979.5 kPa	962.3
9996.2 kPa	962.3
10025 kPa	962.4
10042 kPa	962.3
10056 kPa	962.4
10453 kPa	962.6
10957 kPa	962.9
10974 kPa	962.9
10995 kPa	963
11012 kPa	962.9
11032 kPa	963
11050 kPa	963.1
11067 kPa	963
11088 kPa	963
11123 kPa	963.1
11141 kPa	963.1
11162 kPa	963.1
11180 kPa	963.2
11202 kPa	963.2
11220 kPa	963.2
11238 kPa	963.3
11259 kPa	963.3
11278 kPa	963.2
11296 kPa	963.2
11317 kPa	963.2
11335 kPa	963.2
11354 kPa	963.2
11679 kPa	963.5
11702 kPa	963.5
11722 kPa	963.5
11742 kPa	963.4
11765 kPa	963.6
11786 kPa	963.6
11806 kPa	963.5
11826 kPa	963.6
11850 kPa	963.7
11871 kPa	963.6
11892 kPa	963.5
11914 kPa	963.6
11934 kPa	963.6
11958 kPa	963.7
12004 kPa	963.6
12461 kPa	964
12560 kPa	964
12657 kPa	963.9
12708 kPa	964
12732 kPa	964
12784 kPa	964.2
12808 kPa	964.1
12962 kPa	964.3
12986 kPa	964.3
13011 kPa	964.3
13041 kPa	964.2
13066 kPa	964.4
13090 kPa	964.3
13120 kPa	964.4
13146 kPa	964.4
13171 kPa	964.4
13202 kPa	964.3
13252 kPa	964.5
13283 kPa	964.5
13308 kPa	964.4
13334 kPa	964.6
13365 kPa	964.6
13391 kPa	964.5
13418 kPa	964.6
13449 kPa	964.6
13475 kPa	964.7
13502 kPa	964.6
13533 kPa	964.6
13560 kPa	964.7
13587 kPa	964.5
13619 kPa	964.7
13645 kPa	964.7
13678 kPa	964.8
13705 kPa	964.6
13732 kPa	964.8
13760 kPa	964.7
13793 kPa	964.8
13822 kPa	964.8
13850 kPa	964.7
13884 kPa	964.8
13912 kPa	964.9
13940 kPa	965
13969 kPa	964.9
14002 kPa	964.9
14031 kPa	964.9
14065 kPa	964.9
14094 kPa	964.9
14124 kPa	965
14159 kPa	964.9
14217 kPa	964.9
14254 kPa	965
14374 kPa	965
14411 kPa	965.1
14441 kPa	965.3
14478 kPa	965.2
14509 kPa	965.3
14540 kPa	965.3
14571 kPa	965.2
14777 kPa	965.3
14810 kPa	965.4
14849 kPa	965.5
14883 kPa	965.4
15305 kPa	965.7
15364 kPa	965.8
15393 kPa	965.8
15404 kPa	965.8
15412 kPa	965.8
15421 kPa	965.8
15430 kPa	965.8
15440 kPa	965.9
15449 kPa	965.8
15460 kPa	965.9
15468 kPa	966
15477 kPa	965.9
15488 kPa	965.8
15497 kPa	965.8
15506 kPa	965.9
15514 kPa	965.8
15525 kPa	965.8
15534 kPa	966
15543 kPa	965.9
15554 kPa	965.9
15563 kPa	965.9
15573 kPa	965.9
15582 kPa	966
15591 kPa	965.9
15600 kPa	966
15611 kPa	966
15620 kPa	965.9
15658 kPa	966.1
15667 kPa	966
15678 kPa	966
15687 kPa	966
15698 kPa	966.1
15716 kPa	966.2
15756 kPa	966.1
15853 kPa	966.1
15873 kPa	966.2
15882 kPa	966.1
15893 kPa	966.1
15912 kPa	966.1
15923 kPa	966
15933 kPa	966.2
15942 kPa	966.2
16746 kPa	966.7
16758 kPa	966.5
16768 kPa	966.7
16779 kPa	966.7
16792 kPa	966.6
16801 kPa	966.7
16813 kPa	966.6
16924 kPa	966.8
16935 kPa	966.8
16947 kPa	966.8
16960 kPa	966.9
16970 kPa	966.9
16981 kPa	966.8
16993 kPa	966.8
17004 kPa	966.9
17223 kPa	966.9
17236 kPa	967
17329 kPa	967.1
17342 kPa	967.1
17353 kPa	967.1
17364 kPa	967.1
17378 kPa	967.1
17401 kPa	967
17522 kPa	967
17659 kPa	967.3
17673 kPa	967.2
17685 kPa	967.2
17697 kPa	967.3
17708 kPa	967.1
17722 kPa	967.2
17734 kPa	967.3
17784 kPa	967.3
17798 kPa	967.3
17885 kPa	967.4
17912 kPa	967.5
17924 kPa	967.3
17938 kPa	967.4
17950 kPa	967.5
18001 kPa	967.4
18171 kPa	967.5
18199 kPa	967.5
18211 kPa	967.6
18226 kPa	967.6
18239 kPa	967.6
18252 kPa	967.6
